Source: BindingDB's records for doi:10.1021/acs.jmedchem.0c00830 (University of East Anglia, 2020)

Target: Histone deacetylase 3/Nuclear receptor corepressor 2 (HDAC3/NCoR2) (Homo sapiens, UniProt O15379+Q9Y618)
Experiment: Inhibition of human C-terminal His-tagged HDAC3 (1 to 428 residues)/human N-terminal GST-tagged NcoR2 (395 to 489 residues) expressed in sf9 cells using p53 (379 to 382 residues) (Arg-His-Lys(Ac)-Lys(Ac)) as substrate by fluorimetric assay

Histone deacetylase 3/Nuclear receptor corepressor 2 (HDAC3/NCoR2), sequence (O15379 whole entry, the tested form may be a part): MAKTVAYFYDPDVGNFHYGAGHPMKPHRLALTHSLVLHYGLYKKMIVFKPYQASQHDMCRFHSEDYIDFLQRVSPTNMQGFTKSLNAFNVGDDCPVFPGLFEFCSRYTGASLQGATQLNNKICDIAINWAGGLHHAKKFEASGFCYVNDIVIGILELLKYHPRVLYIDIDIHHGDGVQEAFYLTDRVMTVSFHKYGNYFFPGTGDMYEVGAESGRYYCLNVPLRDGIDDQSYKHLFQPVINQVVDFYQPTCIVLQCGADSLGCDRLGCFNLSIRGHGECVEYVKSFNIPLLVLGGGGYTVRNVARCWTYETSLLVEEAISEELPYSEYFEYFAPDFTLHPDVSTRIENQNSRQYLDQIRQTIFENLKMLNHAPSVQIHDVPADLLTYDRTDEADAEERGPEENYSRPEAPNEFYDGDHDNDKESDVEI
Histone deacetylase 3/Nuclear receptor corepressor 2 (HDAC3/NCoR2), sequence (Q9Y618 whole entry, the tested form may be a part): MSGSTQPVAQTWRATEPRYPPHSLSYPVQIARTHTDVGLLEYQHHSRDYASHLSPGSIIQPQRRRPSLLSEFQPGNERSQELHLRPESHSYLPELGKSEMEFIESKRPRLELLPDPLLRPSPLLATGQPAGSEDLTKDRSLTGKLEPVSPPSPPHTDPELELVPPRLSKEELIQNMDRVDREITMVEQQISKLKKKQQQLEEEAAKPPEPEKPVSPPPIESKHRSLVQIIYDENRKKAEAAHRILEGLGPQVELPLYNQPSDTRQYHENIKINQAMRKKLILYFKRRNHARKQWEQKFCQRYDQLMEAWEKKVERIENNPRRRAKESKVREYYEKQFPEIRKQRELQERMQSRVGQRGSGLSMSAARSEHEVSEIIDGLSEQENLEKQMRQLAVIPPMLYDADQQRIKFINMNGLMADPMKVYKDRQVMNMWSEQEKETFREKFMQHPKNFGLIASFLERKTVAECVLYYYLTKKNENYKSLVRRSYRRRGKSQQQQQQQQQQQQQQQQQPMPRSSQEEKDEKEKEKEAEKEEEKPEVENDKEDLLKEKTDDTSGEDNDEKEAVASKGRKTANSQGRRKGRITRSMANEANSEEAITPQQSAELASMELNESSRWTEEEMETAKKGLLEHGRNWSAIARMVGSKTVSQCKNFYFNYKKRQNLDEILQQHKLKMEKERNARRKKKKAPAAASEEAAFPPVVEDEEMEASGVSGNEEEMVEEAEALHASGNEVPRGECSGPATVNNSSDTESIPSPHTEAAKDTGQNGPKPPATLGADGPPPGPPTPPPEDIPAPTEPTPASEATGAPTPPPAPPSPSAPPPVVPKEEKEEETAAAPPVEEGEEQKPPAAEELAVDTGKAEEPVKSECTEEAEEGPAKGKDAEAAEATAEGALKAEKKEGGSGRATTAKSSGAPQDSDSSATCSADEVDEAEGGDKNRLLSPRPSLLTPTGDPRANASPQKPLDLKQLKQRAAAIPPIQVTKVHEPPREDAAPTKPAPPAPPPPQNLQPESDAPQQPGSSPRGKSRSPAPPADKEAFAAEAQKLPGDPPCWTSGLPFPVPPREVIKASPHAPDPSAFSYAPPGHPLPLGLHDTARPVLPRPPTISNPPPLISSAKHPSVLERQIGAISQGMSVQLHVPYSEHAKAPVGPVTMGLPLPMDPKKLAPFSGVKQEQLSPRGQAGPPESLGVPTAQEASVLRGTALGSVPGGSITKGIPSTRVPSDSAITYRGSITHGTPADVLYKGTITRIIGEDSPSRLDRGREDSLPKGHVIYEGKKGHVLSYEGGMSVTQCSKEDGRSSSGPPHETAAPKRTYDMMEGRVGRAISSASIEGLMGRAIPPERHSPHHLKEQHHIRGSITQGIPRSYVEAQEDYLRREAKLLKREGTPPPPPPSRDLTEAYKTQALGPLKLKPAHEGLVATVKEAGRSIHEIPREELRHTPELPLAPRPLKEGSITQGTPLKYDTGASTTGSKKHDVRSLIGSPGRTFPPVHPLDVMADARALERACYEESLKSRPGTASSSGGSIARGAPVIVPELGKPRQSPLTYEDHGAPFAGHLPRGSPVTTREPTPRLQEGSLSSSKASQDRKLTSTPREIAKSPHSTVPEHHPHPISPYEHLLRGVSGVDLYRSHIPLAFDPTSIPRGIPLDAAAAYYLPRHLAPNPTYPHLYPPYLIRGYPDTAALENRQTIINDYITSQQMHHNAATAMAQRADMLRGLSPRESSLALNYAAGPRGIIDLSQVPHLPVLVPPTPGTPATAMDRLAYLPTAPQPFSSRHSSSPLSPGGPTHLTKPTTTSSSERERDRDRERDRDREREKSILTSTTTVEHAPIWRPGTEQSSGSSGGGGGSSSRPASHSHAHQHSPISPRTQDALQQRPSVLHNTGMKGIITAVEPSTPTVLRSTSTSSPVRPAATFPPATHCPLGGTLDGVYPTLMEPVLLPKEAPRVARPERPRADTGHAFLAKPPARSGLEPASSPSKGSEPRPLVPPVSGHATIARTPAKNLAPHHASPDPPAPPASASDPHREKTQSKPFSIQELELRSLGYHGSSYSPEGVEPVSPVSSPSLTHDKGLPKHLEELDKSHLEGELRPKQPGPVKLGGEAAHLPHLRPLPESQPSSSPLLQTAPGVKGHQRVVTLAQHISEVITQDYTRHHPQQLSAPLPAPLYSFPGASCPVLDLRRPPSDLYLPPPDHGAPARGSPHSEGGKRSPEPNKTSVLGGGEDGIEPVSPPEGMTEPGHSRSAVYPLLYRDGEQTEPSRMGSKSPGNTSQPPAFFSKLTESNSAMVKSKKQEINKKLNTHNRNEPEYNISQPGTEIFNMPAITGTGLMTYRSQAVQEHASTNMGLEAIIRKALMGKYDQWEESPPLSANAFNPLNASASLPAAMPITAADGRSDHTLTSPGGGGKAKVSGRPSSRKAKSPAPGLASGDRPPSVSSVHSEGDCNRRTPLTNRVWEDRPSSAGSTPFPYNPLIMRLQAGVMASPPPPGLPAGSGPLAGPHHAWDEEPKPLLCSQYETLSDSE

For `CCCCNNC(=O)c1ccc(Br)cc1` [UF010], which IC50 is on record?
The IC50 was 60 nM.
